Results from patent publication US6936726B2, “Flavanol and cysteamine conjugates” (Consejo Superior de Investigaciones Cientificas, priority 2000, dated 2005).

Test: DPPH (1,1-diphenyl-2-picrylhydracil) antioxidant/antiradical power assay
Conditions: initial DPPH• around 60 μM; absorbance at 517 nm; calculated from the curves of FIG. 3
Description: FIG. 3. Antioxidant efficacy of phenolic compounds in the DPPH assay. The absorbance (A) at 517 nm is a measure of the amount of free radical remaining in solution. (1−A/A0)×100 represents the percentage of DPPH that has reacted with the antioxidant. The amount of antioxidant expressed as micromoles per micromole of initial DPPH• to correct the possible day to day variation in the amount of initial DPPH• The initial concentration of DPPH• is calculated from the absorbance (A) and a calibration line. Each point represents the mean of three determinations.
The new molecules are potent antioxidants with an excellent capacity to capture free radicals. The conjugates are more efficient than Trolox (water-soluble analogue of Vitamin E) in the DPPH assay (1,1-diphenyl-2-picrylhydracil) [Brand-Williams, W., Cuvelier, M. E., Berset, C., Lebensm.-Wiss. u.-Technol., 28, 25-30 (1995)]. The conjugates are also more efficient than the corresponding non-derived species.
The new pure products are strong antioxidants/capturers of free radicals. FIG. 3 presents the results of the DPPH test (1,1-diphenyl-2-pycrylhydracil). The values of EC50 (effective concentration 50) are calculated from the curves. EC50 is the amount of antioxidant required to reduce the initial concentration to half (around 60 μM) of DPPH•. This amount is expressed as micromoles antioxidant/micromoles initial DPPH•. The EC50 values for compounds relevant to the present invention are: Trolox (water-soluble analogue of Vitamin E), 0.26; (−)-epicatechine, 0.19, 4ξ-(2-aminoethylthio)epicatechine I, 0.11; 4ξ-(2-aminoethylthio)epicatechinegalate III, 0.11.

Compound	EC50 (amount of antioxidant required to reduce the initial concentration of DPPH• to half)
NCCSC1c2c(O)cc(O)cc2O[C@H](c2ccc(O)c(O)c2)[C@H]1O (stereo partly shown) [I, 4ξ-(2-aminoethylthio)epicatechine]	0.11 micromoles antioxidant/micromoles initial DPPH•
NCCSC1c2c(O)cc(O)cc2O[C@H](c2ccc(O)c(O)c2)[C@H]1OC(=O)c1cc(O)c(O)c(O)c1 (stereo partly shown) [III, 4ξ-(2-aminoethylthio)epicatechinegalate]	0.11 micromoles antioxidant/micromoles initial DPPH•
Cc1c(C)c2c(c(C)c1O)CCC(C)(C(=O)O)O2 (stereo not shown) [Trolox]	0.26 micromoles antioxidant/micromoles initial DPPH•
(−)-epicatechine	0.19 micromoles antioxidant/micromoles initial DPPH•
